# Experimental data taken from ChEMBL document CHEMBL1150722, “Inhibitory effects of various flavonoids isolated from leaves of persimmon on angiotensin-converting enzyme activity” (J Nat Prod, 1987).
# How the values were obtained:
# [1] = target: T1, Angiotensin-converting enzyme (Rattus norvegicus) (UniProt P47820); assay: Inhibition of rat lung ACE at 300 ug/ml relative to control
# T1 sequence (whole entry): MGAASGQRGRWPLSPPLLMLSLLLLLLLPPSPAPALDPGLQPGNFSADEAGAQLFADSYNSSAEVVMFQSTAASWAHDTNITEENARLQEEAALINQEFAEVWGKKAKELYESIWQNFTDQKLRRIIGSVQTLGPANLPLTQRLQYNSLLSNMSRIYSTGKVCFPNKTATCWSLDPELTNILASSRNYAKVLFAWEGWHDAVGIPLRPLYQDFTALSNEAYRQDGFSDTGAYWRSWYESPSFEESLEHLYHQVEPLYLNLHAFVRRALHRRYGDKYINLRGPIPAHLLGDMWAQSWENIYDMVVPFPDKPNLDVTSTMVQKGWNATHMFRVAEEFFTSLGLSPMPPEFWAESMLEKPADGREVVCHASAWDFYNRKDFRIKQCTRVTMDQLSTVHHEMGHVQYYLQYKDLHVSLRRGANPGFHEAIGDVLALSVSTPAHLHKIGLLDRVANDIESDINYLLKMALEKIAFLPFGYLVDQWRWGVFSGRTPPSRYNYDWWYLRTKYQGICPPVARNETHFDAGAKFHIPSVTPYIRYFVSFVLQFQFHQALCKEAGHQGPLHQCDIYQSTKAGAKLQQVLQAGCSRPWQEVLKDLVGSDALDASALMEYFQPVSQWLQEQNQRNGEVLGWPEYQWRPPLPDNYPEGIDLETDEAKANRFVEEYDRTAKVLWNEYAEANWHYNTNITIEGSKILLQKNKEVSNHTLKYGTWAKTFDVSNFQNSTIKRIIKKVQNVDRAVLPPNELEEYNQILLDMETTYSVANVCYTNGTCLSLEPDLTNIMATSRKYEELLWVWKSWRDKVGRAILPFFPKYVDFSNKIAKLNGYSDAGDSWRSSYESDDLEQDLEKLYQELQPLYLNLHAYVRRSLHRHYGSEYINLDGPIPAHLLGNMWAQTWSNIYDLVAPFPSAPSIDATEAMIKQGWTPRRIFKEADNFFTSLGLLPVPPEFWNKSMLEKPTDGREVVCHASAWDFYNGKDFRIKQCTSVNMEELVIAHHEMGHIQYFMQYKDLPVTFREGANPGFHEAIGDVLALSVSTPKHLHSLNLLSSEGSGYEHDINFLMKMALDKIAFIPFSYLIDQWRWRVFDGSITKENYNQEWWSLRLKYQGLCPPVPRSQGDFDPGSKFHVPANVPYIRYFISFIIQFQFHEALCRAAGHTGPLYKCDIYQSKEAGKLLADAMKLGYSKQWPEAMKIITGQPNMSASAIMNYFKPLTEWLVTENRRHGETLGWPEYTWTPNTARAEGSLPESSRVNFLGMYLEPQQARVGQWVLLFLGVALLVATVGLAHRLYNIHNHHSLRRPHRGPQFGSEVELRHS
# [2] = target: T1, Angiotensin-converting enzyme (Rattus norvegicus); assay: Inhibition of rat lung ACE at 113 ug/ml relative to control
# [3] = target: T1, Angiotensin-converting enzyme (Rattus norvegicus); assay: Inhibition of rat lung ACE at 225 ug/ml relative to control
# [4] = target: T1, Angiotensin-converting enzyme (Rattus norvegicus); assay: Inhibition of rat lung ACE at 38 ug/ml relative to control
# [5] = target: T1, Angiotensin-converting enzyme (Rattus norvegicus); assay: Inhibition of rat lung ACE at 75 ug/ml relative to control
# [6] = target: T1, Angiotensin-converting enzyme (Rattus norvegicus); assay: Inhibition of rat lung ACE at 150 ug/ml relative to control
# [7] = target: T1, Angiotensin-converting enzyme (Rattus norvegicus); assay: Inhibition of rat lung ACE at 56 ug/ml relative to control
# [8] = target: T2, Angiotensin-converting enzyme (Rattus norvegicus, UniProt P47820); assay: Inhibition of rat lung ACE
# T2 sequence (P47820 whole entry): T1 sequence (whole entry)
Compound,inhibition [1] [%],inhibition [2] [%],inhibition [3] [%],inhibition [4] [%],inhibition [5] [%],inhibition [6] [%],inhibition [7] [%],IC50 [8] [µM]
O=C(O[C@H]1[C@H](Oc2c(-c3ccc(O)c(O)c3)oc3cc(O)cc(O)c3c2=O)O[C@H](CO)[C@@H](O)[C@@H]1O)c1cc(O)c(O)c(O)c1,48,39,34,10,18,39,12,–
O=c1c(O[C@@H]2O[C@H](CO)[C@@H](O)[C@H](O)[C@H]2O)c(-c2ccc(O)cc2)oc2cc(O)cc(O)c12 [ASTRAGALIN],67,31,28,0,22,53,2,401
O=C(O[C@H]1[C@H](Oc2c(-c3ccc(O)cc3)oc3cc(O)cc(O)c3c2=O)O[C@H](CO)[C@@H](O)[C@@H]1O)c1cc(O)c(O)c(O)c1,53,35,39,3,15,35,6,466
O=c1c(O[C@@H]2O[C@H](CO)[C@@H](O)[C@H](O)[C@H]2O)c(-c2ccc(O)c(O)c2)oc2cc(O)cc(O)c12,–,3,19,0,9,19,0,–
